Experiments:
nicotinamidase (PncA) = target: T1, nicotinamidase (PncA) (Escherichia coli, UniProt P21369); experiment: activity of purified PncA after […] min incubation with […] inhibitor at […]°C; activity undetectable; format: biochemical
T1 construct: recombinant His6-tagged nicotinamidase

CobB = target: T2, CobB (Escherichia coli, UniProt P75960); experiment: deacetylation of acetylated Acs by purified CobB at varied NAM and NAD+; Dixon and double-reciprocal plots (Ki approximately […]); format: biochemical
T2 construct: recombinant CobB, MBP tag cleaved
T2 sequence (P75960 1-279): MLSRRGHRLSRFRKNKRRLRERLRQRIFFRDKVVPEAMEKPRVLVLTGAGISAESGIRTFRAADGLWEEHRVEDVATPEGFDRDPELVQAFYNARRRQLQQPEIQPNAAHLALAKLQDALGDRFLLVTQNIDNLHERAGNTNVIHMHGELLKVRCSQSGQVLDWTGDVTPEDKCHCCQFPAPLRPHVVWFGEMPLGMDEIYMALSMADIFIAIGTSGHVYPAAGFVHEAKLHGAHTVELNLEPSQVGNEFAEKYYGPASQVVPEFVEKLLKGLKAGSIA

purified protein = substrate: NC(=O)c1cccnc1; experiment: purified protein; format: biochemical, Escherichia coli

O=Cc1cccnc1 [3-pyridinecarboxaldehide]
activity of purified PncA after 10 min incubation with 1 mM inhibitor at 37°C; a (nicotinamidase (PncA)): This result confirms PncA inhibition by 3-pyridinecarbonitrile and 3-pyridinecarboxaldehide in vitro.

N#Cc1cccnc1 [3-pyridinecarbonitrile]
activity of purified PncA after 10 min incubation with 1 mM inhibitor at 37°C; a (nicotinamidase (PncA)): This result confirms PncA inhibition by 3-pyridinecarbonitrile and 3-pyridinecarboxaldehide in vitro.

NC(=O)c1cccnc1 [nicotinamide]
IC50 (CobB): ~52 µM

B1: nicotinamidase (PncA) (Escherichia coli K-12) (protein)
chain: MPPRALLLVDLQNDFCAGGALAVPEGDSTVDVANRLIDWCQSRGEAVIASQDWHPANHGSFASQHGVEPYTPGQLDGLPQTFWPDHCVQNSEGAQLHPLLHQKAIAAVFHKGENPLVDSYSAFFDNGRRQKTSLDDWLRDHEIDELIVMGLATDYCVKFTVLDALQLGYKVNVITDGCRGVNIQPQDSAHAFMEMSAAGATLYTLADWEETQG
notes: recombinant His6-tagged nicotinamidase
Km (purified protein): 175 ± 27 µM

Reference: article PMC5734772, “Characterization of CobB kinetics and inhibition by nicotinamide” (PLoS ONE, 2017)
